Laboratory results published in patent publication EP0552417B1, “Cyclic peptides and use thereof” (priority 1991, dated 1993).
Where two headings read alike, the source gives them in different places. Non-standard residues stand in square brackets, D forms with d. Residues, ends and D or L forms follow the SMILES beside them. *: point of attachment. NMeW = CN[C@@H](Cc1c[nH]c2ccccc12)C(=O)O; X3 = O=C(Cc1c[nH]c2ccccc12)*; Orn = NCCC[C@H](N)C(=O)O; Bn = c1ccc(C*)cc1

Assays:
[1] = amide bond, 18-membered ring, DMF, 4 steps
ETB = ETB radio receptor assay *2, 125I-endothelin-1, guinea pig kidney crude membrane fraction; assay type: binding, Guinea pigs; details: relative activity, 37 °C, 90 minutes
Protocol: ETB Radio Receptor Assay *2
In the endothelin radio receptor assay, guinea pigs' kidneys were used. Guinea pigs (Std Hartrey, male 250 g, Japan SLC Ltd.) were made to have a cerebral concussion and sacrificed by bleeding from carotid arteries to pick up the kidneys and removed fat therefrom to prepare the kidneys. The obtained kidneys were sliced and homogenized by politron homogenizer in 20 ml of 50 mM Tris-HCl buffer [pH 7.4; 20 mM NaHCO3, 0.1 mM PMSF (Phenylmethylsulfonyl Fluoride), 1 mM EDTA (Ethylenediaminetetraacetic acid)] per one kidney. The homogenized kidney was applied to a centrifugation at 1,000 x g for 15 minutes and the supernatant was further applied to a centrifugation for 20 minutes at 30,000 x g. The resulting precipitate was twice washed with 50 mM Tris-HCl buffer (pH 7.4) containing 0.1 mM PMSF, 1 mM EDTA. The resultant was stored at -80 °C as a crude receptor membrane fraction and was used as the suspension in the following buffer when necessary.
740 Bq of ^125I-endothelin-1 (81.4 TBq/mmol, Du Pont, USA) as a radio ligand, the crude membrane fraction (2.1 µg protein) and samples were added to the following buffer. The reaction was performed at 37 °C, for 90 minutes in 0.2 ml of the buffer [50 mM Tris-HCl buffer (pH 7.4) containing 0.1 mM PMSF, 1 mM EDTA, 0.2% bovine serum albumin].
The reaction was stopped by fast filtration on a glass filter (GF/B, Wattman, USA) by Cell Harvestor (290 PHD, Cambridge-Technology, Great Britain), and the filter was three times washed with 50 mM Tris-HCl buffer (pH 7.4). Radio activity remained on the filter was assayed by a gamma counter.

[2] = biological target: T1, endothelin receptor A (ETA) (Sus scrofa, UniProt Q29010); experiment: Assay of affinity for receptor (1): binding activity on ETA receptor, 125I-labeled endothelin-1, porcine heart membrane fraction; parameters: key: relative specific activity; reference cyclic pentapeptide ETA binding = 1.0; details: specific activity, taking the binding activity of control cyclo[-D-Glu-Ala-D-aIle-Leu-D-Trp-] on receptor A as 1.0, 25°C, 1 hour
T1 construct: A membrane fraction prepared from the porcine heart; from tissue; host or cells: porcine heart membrane fraction
T1 sequence (Q29010 21-427): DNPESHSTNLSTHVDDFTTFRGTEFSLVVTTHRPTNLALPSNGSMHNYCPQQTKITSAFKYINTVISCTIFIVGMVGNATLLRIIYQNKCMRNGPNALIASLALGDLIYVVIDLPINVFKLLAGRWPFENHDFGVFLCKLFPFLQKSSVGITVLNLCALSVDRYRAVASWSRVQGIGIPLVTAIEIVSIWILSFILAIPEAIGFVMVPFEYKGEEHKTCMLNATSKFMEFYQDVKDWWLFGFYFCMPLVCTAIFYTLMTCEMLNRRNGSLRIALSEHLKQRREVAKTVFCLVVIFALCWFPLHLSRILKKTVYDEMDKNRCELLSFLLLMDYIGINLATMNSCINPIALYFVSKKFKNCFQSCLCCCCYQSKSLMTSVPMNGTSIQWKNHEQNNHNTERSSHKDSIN
Protocol: Assay of Affinity for Receptor (1) ... Binding Activity on ETA Receptor
A membrane fraction prepared from the porcine heart was diluted to 0.15 mg/ml by using a buffer solution for assay, and 100 µl of the resulting suspension of the membrane fraction was poured into each assay tube to use for assay. To this suspension of the membrane fraction was added 2 µl of 5 nM ^125I-labeled endothelin-1 solution. Further, 3 µl of a test peptide solution was added thereto, followed by incubation at a temperature of 25°C for 1 hour. Then, the resulting suspension was diluted with 900 µl of the buffer solution for assay cooled with ice, and thereafter separated into a supernatant and a precipitate by centrifugation at 12,000 X g for 10 minutes. Cell membranes and an endothelin receptor A (ETA) embedded therein were contained in the precipitate, and radioactive iodine-labeled endothelin combined with the receptor was also recovered in the precipitate. Accordingly, the amount of radioactive iodine-labeled endothelin combined with the endothelin receptor A (ETA) was determined by measuring the amount of radioactive iodine contained in the precipitate with a gamma-ray counter. The cyclic pentapeptide described in Japanese Patent Application No. 2-413328/1990, cyclo[-D-Glu-Ala-D-aIle-Leu-D-Trp-], was used as a control compound. The numerical value of ETA shown in Table 1 is the value of specific activity, taking the binding activity of this cyclic pentapeptide on the receptor A as 1.0. The binding activity (IC50) of this cyclic pentapeptide on the ETA receptor is 2x10^-6 M.

[3] = HONB ester (HONB/DCC preactivation)/TEA, 5.0 mM
[4] = HONB/DCC preactivation, TEA, 5.0 mM

Row | Binding Activity on ET Receptor (R. act.) ETB*2 (ETB) | Binding Activity on ET Receptor (R. act.) ETA [2] | Molecule | further results
1 |  |  | cyclo[-D-Asp-Glu-Ala-D-Leu-Leu-D-Trp-] | ring closure, yield after HPLC [1, 3]: 20.6%
2 |  |  | cyclo[-D-Asp-Orn(COCH2CH2Ph)-Asp-D-Leu-Leu-D-Trp-] | ring closure, yield after HPLC ([1]; HONB/DCC (preformed ONB ester), TEA, 5.1 mM): 40.9%
3 |  |  | cyclo[-D-Asp-Orn(COCH2Ph)-Asp-D-Leu-Leu-D-Trp-] | ring closure, yield after HPLC ([1]; HONB/DCC (preformed ONB ester), TEA, 4.7 mM): 2.9%
4 |  |  | cyclo[-D-Asp-Trp-Asp-D-Leu-Leu-D-Trp-] | ring closure, yield after HPLC [1, 3]: 52.9%
5 |  |  | cyclo[-D-Asp-Trp-Asp-D-γMeLeu-Leu-D-Trp-] | ring closure, yield after HPLC ([1]; HONB/DCC (preactivation), HCl/dioxane, TEA, 5.0 mM): 51.5%
6 |  |  | cyclo[-D-Asp-Gln(Bzl)-Asp-D-Thg(2)-Leu-D-Trp-] | ring closure, yield after HPLC ([1]; HONB/DCC preactivation, HCl, TEA, 5.1 mM): 8.8%
7 |  |  | cyclo[-D-Asp-Asn(CH2CH2Ph)-Asp-D-Leu-Leu-D-Trp-] | ring closure, yield after HPLC ([1]; HONB/DCC (preactivation), HCl/dioxane, TEA, 3.5 mM): 24.1%
8 |  |  | cyclo[-D-Asp-Trp-Asp-D-Thg(2)-Leu-D-Trp-] | ring closure, yield after HPLC ([1]; HONB/DCC (preactivation), HCl/dioxane, TEA, 5.1 mM): 4.6%
9 |  |  | cyclo[-D-Asp-Orn(COPh)-Asp-D-Leu-Leu-D-Trp-] | ring closure, yield after HPLC ([1]; HONB/DCC (preformed ONB ester), TEA, 5.0 mM): 48.1%
10 |  |  | cyclo[-D-Asp-Asn(CH2Ph)-Asp-D-Leu-Leu-D-Trp-] | ring closure, yield after HPLC ([1]; HONB ester (HONB/DCC preactivation)/TEA, 3.5 mM): 23.8%
11 |  |  | cyclo[-D-Asp-Orn(COCH2-Ind)-Asp-D-Leu-Leu-D-Trp-] | ring closure, yield after HPLC ([1]; HONB/DCC (preformed ONB ester), TEA, 4.9 mM): 12.5%
12 |  |  | cyclo[-D-Asp-Gly-Ala-D-Leu-Leu-D-Trp-] | ring closure, yield after HPLC ([1]; HONB ester (HONB/DCC preactivation)/TEA, 5.9 mM): 19.2%
13 | 1.0 | 2.6 | CC(C)C[C@@H]1NC(=O)[C@@H](CC(C)C)NC(=O)[C@H]2CCCN2C(=O)[C@H](CC(=O)O)NC(=O)[C@@H](CC(=O)O)NC(=O)[C@@H](Cc2c[nH]c3ccccc23)NC1=O [Example 31, Cyclo[-D-Asp-Asp-D-Pro-D-Leu-Leu-D-Trp-]] (cyclo(D[dP][dL]L[dW][dD])) | 
14 |  |  | cyclo[-D-Asp-Ala-Glu-D-Leu-Leu-D-Trp-] | ring closure, yield after HPLC [1, 4]: 24.1%
15 | 30 | 9.1 | CC(C)C[C@@H]1NC(=O)[C@@H](CC(C)C)NC(=O)[C@H](CC(=O)O)NC(=O)[C@H](Cc2c[nH]c3ccccc23)N(C)C(=O)[C@@H](CC(=O)O)NC(=O)[C@@H](Cc2c[nH]c3ccccc23)NC1=O [Example 67, Cyclo[-D-Asp-N-MeTrp-Asp-D-Leu-Leu-D-Trp-]] (cyclo(D[dL]L[dW][dD][NMeW])) | 
16 |  |  | H-Acbu-Leu-dTrp-dAsp(OBzl)-Trp-Asp(OBzl)-ONB | ring closure, yield after HPLC ([1]; the molecule shown is the open-chain precursor, HONB/DCC (preformed ONB ester), TEA, 5.0 mM): 10.4%
17 | 2.4 | 2.6 | CC(C)C[C@@H]1NC(=O)[C@@H](CC(C)C)NC(=O)[C@@H](C)NC(=O)[C@H](CC(=O)O)NC(=O)[C@@H](CC(=O)O)NC(=O)[C@@H](Cc2c[nH]c3ccccc23)NC1=O [Example 29, Cyclo[-D-Asp-Asp-D-Ala-D-Leu-Leu-D-Trp-]] (cyclo(D[dA][dL]L[dW][dD])) | 
18 |  |  | cyclo[-D-Asp-Ala-D-Glu-D-Leu-Leu-D-Trp-] | ring closure, yield after HPLC [1, 4]: 10.8%
19 |  |  | cyclo[-D-Asp-Asp-Ala-D-Leu-Leu-D-Trp-] | ring closure, yield after HPLC [1, 3]: 17.8%
20 | 9.1 | 4.4 | CC(C)C[C@@H]1NC(=O)[C@@H](CC(C)C)NC(=O)[C@@H]2CCCN2C(=O)[C@H](CC(=O)O)NC(=O)[C@@H](CC(=O)O)NC(=O)[C@@H](Cc2c[nH]c3ccccc23)NC1=O [Example 30, Cyclo[-D-Asp-Asp-Pro-D-Leu-Leu-D-Trp-]] (cyclo(DP[dL]L[dW][dD])) | 
21 |  |  | cyclo[-D-Asp-Ala-D-Asp-D-Leu-Leu-D-Trp-] | ring closure, yield after HPLC [1, 4]: 15.3%
22 |  |  | cyclo[-D-Asp-Asn(CH2CH2-Ind)-Asp-D-Leu-Leu-D-Trp-] | ring closure, yield after HPLC ([1]; HONB/DCC (preactivation), HCl/dioxane, TEA, 3.2 mM): 19.4%
23 | 3.1 | 3.7 | CC(C)C[C@@H]1NC(=O)[C@@H](CC(C)C)NC(=O)[C@@H](CC(=O)O)NC(=O)[C@H](C)NC(=O)[C@@H](CC(=O)O)NC(=O)[C@@H](Cc2c[nH]c3ccccc23)NC1=O [Example 2, cyclo[-D-Asp-Ala-D-Asp-D-Leu-Leu-D-Trp-]] (cyclo(A[dD][dL]L[dW][dD])) | 
24 | 7.1 | 6.5 | CC(C)C[C@@H]1NC(=O)[C@@H](CC(C)C)NC(=O)[C@H](C)NC(=O)[C@H](CCC(=O)O)NC(=O)[C@@H](CC(=O)O)NC(=O)[C@@H](Cc2c[nH]c3ccccc23)NC1=O [Example 7, cyclo[-D-Asp-Glu-Ala-D-Leu-Leu-D-Trp-]] (cyclo(A[dL]L[dW][dD]E)) | 
25 | 13 | 14 | CC(C)C[C@@H]1NC(=O)[C@@H](CC(C)C)NC(=O)[C@H](CC(=O)O)NC(=O)[C@H](COCc2ccccc2)NC(=O)[C@@H](CC(=O)O)NC(=O)[C@@H](Cc2c[nH]c3ccccc23)NC1=O [Example 20, Cyclo[-D-Asp-Ser(Bzl)-Asp-D-Leu-Leu-D-Trp-]] (cyclo(D[dL]L[dW][dD]S(Bn))) | 
26 | 7.1 | 6.0 | CC(C)C[C@@H]1NC(=O)[C@@H](CC(C)C)NC(=O)[C@H](C)NC(=O)[C@H](CC(=O)O)NC(=O)[C@@H](CC(=O)O)NC(=O)[C@@H](Cc2c[nH]c3ccccc23)NC1=O [Example 6, cyclo[-D-Asp-Asp-Ala-D-Leu-Leu-D-Trp-]] (cyclo(A[dL]L[dW][dD]D)) | 
27 | 43 | 15 | CC(C)C[C@@H]1NC(=O)[C@@H](CC(C)C)NC(=O)[C@H](CC(=O)O)NC(=O)[C@H](Cc2c[nH]cn2)NC(=O)[C@@H](CC(=O)O)NC(=O)[C@@H](Cc2c[nH]c3ccccc23)NC1=O [Example 83, Cyclo[-D-Asp-His-Asp-D-Leu-Leu-D-Trp-]] (cyclo(D[dL]L[dW][dD]H)) | 

Row | Molecule | Binding Activity on ET Receptor (R. act.) ETB*2 (ETB) | Binding Activity on ET Receptor (R. act.) ETA [2] | further results
28 | CC(C)C[C@@H]1NC(=O)[C@@H](CC(C)C)NC(=O)[C@H](CC(=O)O)NC(=O)[C@H](CCCNC(=O)Cc2c[nH]c3ccccc23)NC(=O)[C@@H](CC(=O)O)NC(=O)[C@@H](Cc2c[nH]c3ccccc23)NC1=O [Example 82, cyclo[-D-Asp-Orn(COCH2-Ind)-Asp-D-Leu-Leu-D-Trp-]] (cyclo(D[dL]L[dW][dD][Orn](X3))) | 500 | 240 | 
